For this assay, the system named is intestinal polyps (adenomas). Nature of the assay: in vivo standard pharmacological test procedure emulating familial adenomatous polyps (FAP) using the Min mouse; polyp count. Also noted: species or system Min mouse (C57BL/6J-Min/+). The note with it: for Number of Polyps: 60 days. From the text:
The procedure described below emulates familial adenomatous polyps (FAP) in humans using the Min mouse (C57BL/6J-Min/+), which is a strain which has lost […] copies of the APC gene. These animals develop multiple intestinal polyps (adenomas) that ultimately progress to form adenocarcinomas. The polyps that develop in Min mice express EGFR and have activated COX-2. […] The following briefly describes the procedure used and the results obtained in this standard pharmacological test procedure.
The animals were treated for 60 days. The food was weighed once per week to determine consumption, and the animals also weighed weekly. On day 61, the animals were euthanized with CO2 inhalation, and the entire intestinal tract from stomach to anus was removed. The intestinal tract was injected with Bouins fixative, and allowed to fix for several days. The intestinal tracts were then opened and the number of polyps counted. Statistical analysis was performed using the Student's t-Test; a p value of ≦0.05 is considered statistically significant.
The above standard pharmacological test procedure was run again using (4-dimethylamino-but-2-enoic acid [4-(3-chloro-4-fluoro-phenylamino)-3-cyano-7-ethoxy-quinolin-6-yl]-amide as a representative EGFR kinase inhibitor, as follows. Test animals were divided into four treatment groups: Group I, control; Group II, (4-dimethylamino-but-2-enoic acid [4-(3-chloro-4-fluoro-phenylamino)-3-cyano-7-ethoxy-quinolin-6-yl]-amide Group III, sulindac; and Group IV, combination of sulindac and (4-dimethylamino-but-2-enoic acid [4-(3-chloro-4-fluoro-phenylamino)-3-cyano-7-ethoxy-quinolin 6-yl]-amide. The test compound was blended with a standard murine chow and animals were given ad libitum access to the food, in quantities corresponding to the following approximate daily dosages: Group II—20 mg/kg/(4-dimethylamino-but-2-enoic acid [4-(3-chloro-4-fluoro-phenylamino)-3-cyano-7-ethoxy-quinolin-6-yl]-amide, Group III—5 mg/kg/day sulindac; and Group IV—20 mg/kg/(4-dimethylamino-but-2-enoic acid [4-(3-chloro-4-fluoro-phenylamino)-3-cyano-7-ethoxy-quinolin-6-yl]-amide and 5 mg/kg/day sulindac. The animals were treated for 60 days. The food was weighed once per week to determnine consumption, and the animals also weighed weekly. On day 61, the animals were euthanized with CO2 inhalation, and the entire intestinal tract from stomach to anus was removed. The intestinal tract was injected with Bouins fixative, and allowed to fix for several days. The intestinal tracts were then opened and the number of polyps counted. Statistical analysis was performed using the Students t-Test; a p value of ≦0.05 is considered statistically significant.

From patent US6432979B1, “Method of treating or inhibiting colonic polyps and colorectal cancer” (American Cyanamid Company, priority 1999, dated 2002) come the findings set out here.

Turning to `CC#CC(=O)Nc1ccc2ncnc(Nc3cccc(Br)c3)c2c1`, the “Number of Polyps” value (first run, 40 mg/kg/day in chow, counted day 61, control 32.3 ± 20.7) is reported as 15.6 ± 10.6.
Take `CC1=C(CC(=O)O)c2cc(F)ccc2/C1=C\c1ccc([S+](C)[O-])cc1` (stereo not shown) [sulindac]: the “Number of Polyps” value is 10.0 ± 6.6 (first run, 20 mg/kg/day sulindac in chow, counted day 61, control 32.3 ± 20.7) and 20.6 ± 11.8 (third run, 5 mg/kg/day sulindac in chow, control 19.5 ± 14.1). Further, under “third run, sulindac alone at the 5 mg/kg dose”, the “reduction of polyp numbers (in words)” value is “did not reduce polyp numbers at all”.
